Experiment: RP, Waters ACQUITY UPLC BEH C18, 100 × 1 mm, 1.7 µm, 50 °C, 0.3 mL/min, estimated dead time 0.17 min; A: water + 0.1% formic acid + 20 mM ammonium formate; B: methanol + 0.1% formic acid + 20 mM ammonium formate; gradient (min/%B) 0/0 15/100 21/100 22/0 30/0
Details: stereoisomer not certain

SMILES | LC retention time [min]
CN(C)C(=O)Nc1ccc(-n2nc(C(C)(C)C)oc2=O)c(Cl)c1 [Dimefuron] | 13.6
Cc1csc(C)c1NC(=O)CCl [Dimethenamid-N-dealkylation] | 10.2
COC(=O)c1ccccc1C(=O)OC [Dimethylphthalat DMP] | 11.2
CNC(=O)Oc1ccccc1C1OCCO1 [Dioxacarb] | 15.1
O=[P+](c1ccccc1)c1ccccc1 [Diphenylphosphine oxide] | 11.8
Cc1ccc(OP(=O)(Oc2ccccc2)Oc2ccccc2)cc1 [Diphenyltolyl phosphate] | 16.3
CCOP(=S)(OCC)SCCS(=O)CC (stereo not drawn) [Disulfoton-sulfoxide] | 12.7
CCOP(=S)(OCC)SCCSCC [Disulfoton] | 16
Cc1ccc(OP(=O)(Oc2ccccc2)Oc2ccc(C)cc2)cc1 [Ditolyl phenyl phosphate] | 14
CCCCCCCCCCCOC(=O)c1ccccc1C(=O)OCCCCCCCCCCC [Diundecylphthalate] | 21
CC=C(C)C(=O)OC1CC[N+]2([O-])CC=C(COC(=O)C(O)(C(C)O)C(C)(C)O)C12 (stereo not drawn) [Echimidine N-oxide] | 9.37
O=P(O)(O)CCCl [Ethephon] | 2.01
CCCSP(=O)(OCC)SCCC [Ethoprophos] | 15
OC(c1ccc(Cl)cc1)(c1cncnc1)c1ccccc1Cl (stereo not drawn) [Fenarimol] | 14.9
CC(C)(C)c1ccc(CCOc2ncnc3ccccc23)cc1 [Fenazaquin] | 17.8
CC(Cc1ccc(C(C)(C)C)cc1)CN1CCCCC1 (stereo not drawn) [Fenpropidin] | 13.8
COc1cc(OC)nc(NC(=O)NS(=O)(=O)c2ncccc2C(F)(F)F)n1 [Flazasulfuron] | 13.4
Cc1cc(C(F)(C(F)(F)F)C(F)(F)F)ccc1NC(=O)c1cccc(I)c1C(=O)NC(C)(C)CS(C)(=O)=O [Flubendiamide] | 15.4
O=C1C(Cl)C(CCl)CN1c1cccc(C(F)(F)F)c1 (stereo not drawn) [Flurochloridone] | 14.6
C=CC12CN(C)C3C4COC(CC41)C1(C(=O)Nc4ccccc41)C32 (stereo not drawn) [Gelsemine] | 7.38

SMILES | LC retention time [min]
COP(=O)(OC)OC1=C(Cl)C2C=CCC12 (stereo not drawn) [Heptenophos] | 13.3
CCCCC(O)(Cn1cncn1)c1ccc(Cl)cc1Cl (stereo not drawn) [Hexaconazole] | 15.9
CN(C)CCc1ccc(O)cc1 [Hordenine] | 3.04
O=NNC1=NCCN1Cc1ccc(Cl)nc1 [Imidacloprid-nitrosoimine] | 7.84
O=[N+]([O-])Nc1nccn1Cc1ccc(Cl)nc1 [Imidacloprid-olefin] | 7.92
COP(N)(=S)Oc1ccccc1C(=O)OC(C)C (stereo not drawn) [Isocarbophos] | 13.2
CCOP(=S)(NC(C)C)Oc1ccccc1C(=O)OC(C)C (stereo not drawn) [Isofenphos (-ethyl)] | 16
COP(=S)(NC(C)C)Oc1ccccc1C(=O)OC(C)C (stereo not drawn) [Isofenphos-methyl] | 15.5
CCOC(=O)CC(SP(=S)(OC)OC)C(=O)OCC (stereo not drawn) [Malathion] | 14.3
O=c1ccc(=O)[nH][nH]1 [Maleic acid hydazide] | 16.4
C#CCOc1ccc(CCNC(=O)C(OCC#C)c2ccc(Cl)cc2)cc1OC (stereo not drawn) [Mandipropamid] | 14.3
Cc1ccccc1C(=O)Nc1cccc(OC(C)C)c1 [Mepronil] | 14.4
COC(=O)C(C)=COP(=S)(OC)OC [Methacrifos] | 12.1
COc1nn(CSP(=S)(OC)OC)c(=O)s1 [Methidation] | 13.2
CNC(=O)Oc1cc(C)c(S(C)=O)c(C)c1 (stereo not drawn) [Methiocarb-sulfoxide] | 9.18
CCc1cccc(C)c1NC(=O)CCl [Metolachlor-N-dealkylation] | 13.7
CON(C)C(=O)Nc1ccc(Cl)cc1 [Monolinuron] | 12.2
CN(C)c1ccccc1 [N,N-Dimethylaniline] | 2.5
O=C1CCC2(O)C3Cc4ccc(O)c5c4C2(CCN3CC2CC2)C1O5 (stereo not drawn) [Naltrexon] | 5.88

More lines, now with the values ahead:

LC retention time [min] | SMILES
10.8 | COCC(C)N(C(=O)CS(=O)(=O)O)c1c(C)csc1C (stereo not drawn) [Dimethenamid-M 27 (ESA)]
13.5 | c1ccc(Oc2ccccc2)cc1 [Diphenylether]
14 | O=C1CCCCCCCCCCCN1 [Dodecane-12-lactam]
13.5 | CC1CN(C2CCCCCCCCCCC2)CC(C)O1 (stereo not drawn) [Dodemorph]
13.8 | CC12CCC3C(=CCc4cc(O)ccc43)C1CCC2=O (stereo not drawn) [Equilin]
19.6 | CCCCCCCCC=CCCCCCCCCCCCC(N)=O [Erucamide]
12 | CC1(C)C(=O)Oc2ccc(OS(C)(=O)=O)cc21 [Ethofumesate-2-keto]
16.2 | O=C(O)c1ccccc1Nc1cccc(C(F)(F)F)c1 [Flufenamic acid]
14.6 | CC(=O)OCC(=O)C12OC(C)(C)OC1CC1C3CC(F)C4=CC(=O)C=CC4(C)C3(F)C(O)CC12C (stereo not drawn) [Fluocinonide]
14.4 | O=C(NCc1ncc(C(F)(F)F)cc1Cl)c1c(Cl)cccc1Cl [Fluopicolide]
13.2 | CNCCC(Oc1ccc(C(F)(F)F)cc1)c1ccccc1 (stereo not drawn) [Fluoxetine]
13.2 | COc1ccc(-c2coc3cc(O)ccc3c2=O)cc1 [Formononetin]
9.9 | O=C(O)CC1(C(=O)O)CCCCC1 [Gabapentin Related Compound E]
16.7 | CCCCCC(=O)OC1(C(C)=O)CCC2C3CCC4=CC(=O)CCC4C3CCC21C (stereo not drawn) [Gestonorone capronate]
19.2 | CCCCCCCCCCCCCCCCCC(=O)OCC(O)CO (stereo not drawn) [Glyceryl monostearate]
18.6 | CCCCCCCCCCCCCCCC(=O)OCC(O)CO (stereo not drawn) [Glyceryl-1-monopalmitate]
5 | C=CC1CNC(=S)O1 (stereo not drawn) [Goitrin]
7.2 | O=C(O)CNC(=O)c1ccccc1 [Hippuric_acid]
2.6 | NC(Cc1cnc[nH]1)C(=O)N1CCCC1C(=O)O (stereo not drawn) [His-Pro]
13.4 | CC(=O)OCC(=O)C1(O)CCC2C3CCC4=CC(=O)CCC4(C)C3C(O)CC21C (stereo not drawn) [Hydrocortisonacetate]
17.7 | CC(=O)C1(C)CC2=C(CCCC2(C)C)CC1C (stereo not drawn) [ISO E Super]
14.5 | C1=Cc2ccccc2Nc2ccccc21 [Iminostilbene]
4.3 | c1ccc2[nH]ncc2c1 [Indazole]
7.8 | O=C(O)c1cc2ccccc2[nH]1 [Indole-2-carboxylic acid/Indole-3-carboxylic acid]
2.02 | CC1(C)CC(N)CC(C)(CN)C1 (stereo not drawn) [Isophorone diamine]

LC retention time [min] | SMILES
8.71 | O=C(O)c1cccc(C(=O)O)c1 [Isophthalic acid]
12.2 | COc1c2ccoc2c(OC)c2oc(=O)ccc12 [Isopimpinellin]
5.5 | COC1CC(OC2C(C)OC(OC3C(C)=CCC4CC(CC5(CCC(C)C(C(C)C)O5)O4)OC(=O)C4C=C(C)C(O)C5OCC(=CC=CC3C)C45O)CC2OC)OC(C)C1O (stereo not drawn) [Ivermectin B1b]
6.9 | O=C(O)c1cc(=O)c2ccccc2[nH]1 [Kynurenic acid]
7.7 | O=C1CC[C@@H](C(=O)O)N1 [L-Pyroglutamic acid]
6.5 | N[C@@H](Cc1ccc(O)cc1)C(=O)O [L-Tyrosine]
9.71 | O=c1cc(-c2ccc(O)c(O)c2)oc2cc(OC3OC(CO)C(O)C(O)C3O)cc(O)c12 (stereo not drawn) [Luteolin 7-glucoside]
9.71 | COc1ccc2[nH]cc(CCNC(C)=O)c2c1 [Melatonin]
12.8 | COC(=O)c1ccc(CNS(C)(=O)=O)cc1S(=O)(=O)NC(=O)Nc1nc(OC)cc(OC)n1 [Mesosulfuron-methyl]
9.29 | Cc1cccc(C)c1N(Cn1cccn1)C(=O)C(=O)O [Metazachlor BH 479-4 (Metazachlor oxanilic acid (OA))]
10.2 | Cc1cccc(C)c1NC(=O)CCl [Metazachlor-N-dealkylation]
11.1 | Cc1cccc(C)c1N(Cn1cccn1)C(=O)CO [Metazachlor-OH-deschloro]
5.18 | Cn1ncc(N)c(Cl)c1=O [Methyl-Desphenyl-Chloridazon]
9.82 | CC(C)(C)c1n[nH]c(=O)n(N)c1=O [Metribuzin-diketo]
8.3 | CN(C)c1ccc(O)c2c1CC1CC3C(N(C)C)C(=O)C(C(N)=O)=C(O)C3(O)C(=O)C1=C2O (stereo not drawn) [Minocyclin]
8.18 | O=C(NCCN1CCOCC1)c1ccc(Cl)cc1 [Moclobemide]
15 | CCCC(C)(C)C(=O)Nc1ccc(Cl)cc1 [Monalide]
6.3 | CN(C)c1nc2c(ncn2C2OC(CO)C(O)C2O)c(=O)[nH]1 (stereo not drawn) [N2_N2-Dimethylguanosine]
7.6 | CC(O)C(NC(=O)Nc1ncnc2c1ncn2C1OC(CO)C(O)C1O)C(=O)O (stereo not drawn) [N6-Threonylcarbamoyladenosine]
10.7 | CCNC(=O)c1cccc(C)c1 [N-Ethyl-3-methylbenzamide]
6.4 | CC=C(C)C(=O)NCC(=O)O [N-Tigloylglycine]
13.6 | CCOc1ccc2ccccc2c1C(=O)NC1C(=O)N2C1SC(C)(C)C2C(=O)O (stereo not drawn) [Nafcillin]
16 | CCN(CC)CCOC(=O)C(Cc1cccc2ccccc12)CC1CCCO1 (stereo not drawn) [Nafronyl]
18.2 | CCCCC(CC)COC(=O)C=Cc1ccc(OC)cc1 (stereo not drawn) [Octyl-methoxycinnamate]

Reference: the RepoRT retention time repository (doi:10.1021/acs.analchem.1c00972)
